Data: patent US20250186490A1, “METHOD OF CHEMICALLY TREATING OR CULTIVATING MACROPHAGES AND THEIR THERAPEUTIC APPLICATIONS IN FIBROTIC DISEASES” (MAPONOS THERAPEUTICS INC., priority 2022, published 2025)

What was measured:
[1] = test system: Bone Marrow-Derived Macrophages (BMDM); assay: MCP-1 ELISA on culture supernatant of MRCi-treated macrophages cultured under hypoxia; type: cell-based, mouse; conditions: then hypoxia, vs untreated
Procedure: (§1) In this example, macrophages were isolated and cultivated from the source of murine bone marrow. Eight-week-old male C57/BL6 mice (The Jackson Laboratory, ME, USA) were sacrificed by cervical dislocation. The tibia and femur were separated, and the bone marrow was flushed out using ice-cold PBS solution. Bone marrow cells were then resuspended into single-cell suspension and washed with ice-cold PBS. The cells were treated with Red Blood Cell Lysis Buffer (MilliporeSigma, MA, USA). After the treatment, the cell suspension was washed with ice-cold PBS then seeded with a culture medium.
(§2) The culture medium for the BMDM used in this example includes RPMI1640 (Thermo Fisher Scientific, MA, USA) containing 10% heat-inactivated Fetal Bovine Serum (Gemini Bio, CA, USA), supplied with 100 ng/ml of Recombinant Mouse M-CSF Protein (R&D Systems, MN, USA). Fresh medium was supplied on day three and day five post isolation. On day six of the culturing process, 1 μM of Rotenone (MilliporeSigma, MA, USA) in DMSO solution was added into the culturing medium and incubated for 2 hours with the cells. Then the culture was replaced with fresh medium and was placed into a hypoxia culture chamber with 1% oxygen supply and 5% carbon dioxide at 37° C. On day seven, the cells were ready for downstream treatments. In the untreated group, only vehicle (DMSO) was added as the control. In addition to Rotenone, the following mitochondrial respiratory chain inhibitors (MRCi) were also tested following the same culturing process: Deguclin (10 μM), Piericidin A (0.1 μM), and Capsaicin (5 μM).
To evaluate the enhanced anti-fibrosis ability of the chemically-treated BMDM, ELISA assays were applied using commercially purchased testing kits. In this example, a Mouse MCP-1 ELISA Kit and a Mouse IP-10 ELISA Kit (CXCL10) (both from Abcam plc, Cambridge, UK) were used. Tests using both kits were performed according to the instructions provided by Abcam. […]

[2] = test system: Bone Marrow-Derived Macrophages (BMDM); assay: CXCL10 (IP-10) ELISA on culture supernatant of MRCi-treated macrophages cultured under hypoxia; type: cell-based, mouse; conditions: then hypoxia (1% oxygen), vs untreated
Procedure: as §1
as §2, with “In addition to Rotenone, the following mitochondrial respiratory chain inhibitors (MRCi) were also tested following the same culturing process: Deguclin (10 μM), Piericidin A (0.1 μM), and Capsaicin (5 μM).” left out

C/C=C(\C)[C@H](O)[C@H](C)/C=C(C)/C=C/C/C(C)=C/Cc1nc(OC)c(OC)c(O)c1C [Piericidin A]
MCP-1 level ([1]; BMDM treated with 0.1 μM Piericidin A): reduce the MCP-1 level

COc1cc(CNC(=O)CCCC/C=C/C(C)C)ccc1O [capsaicin, Capsaicin]
MCP-1 level ([1]; BMDM treated with 5 μM capsaicin): reduce the MCP-1 level

COc1cc2c(cc1OC)[C@@H]1C(=O)c3ccc4c(c3O[C@@H]1CO2)C=CC(C)(C)O4 [deguelin, Deguelin]
CXCL 10 level ([2]; BMDM treated with 10 μM deguelin for 2 hours): increased CXCL 10 level

C=C(C)[C@H]1Cc2c(ccc3c2O[C@@H]2COc4cc(OC)c(OC)cc4[C@@H]2C3=O)O1 [rotenone, Rotenone]
CXCL 10 level ([2]; BMDM treated with 1 μM rotenone for 2 hours): increased CXCL 10 level
MCP-1 level ([1]; BMDM treated with 1 μM rotenone): reduce the MCP-1 level
